Target: human PD-L1 / Human PD-1 (Homo sapiens (Human), UniProt Q9NZQ7)
Assay: Enzyme-Linked Immunosorbent Assay (ELISA), PD-1/PD-L1 binding
Conditions: plates coated with human PD-L1, biotinylated human PD-1 added
Method: 96 Well plates were coated with 1 μg/mL of human PD-L1 (obtained from R&D) in PBS overnight at 4′° C. The wells were then blocked with 2% BSA in PBS (W/V) with 0.05% TWEEN-20 for 1 hour at 37′° C. The plates were washed 3 times with PBS/0.05% TWEEN-20 and the compounds were serial diluted (1:5) in dilution medium and added to the ELISA plates. Human PD-1 and biotin 0.3 μg/mL (ACRO Biosystems) were added and incubated for 1 hour at 37° C. then washed 3 times with PBS/0.05% TWEEN-20. A second block was performed with 2% BSA in PBS (WNV)/0.05% TWEEN-20 for 10 min at 37° C. and the plates were washed 3 times with PBS/0.05% TWEEN-20. Streptavidin-HIRP was added for 1 hour at 37° C. then the plates were washed 3 times with PBS/0.05% TWEEN-20. TMB substrate was added and reacted for 20 min at 37° C. A stop solution (2 N aqueous H2SO4) was added. The absorbance was read at 450 nm using a micro-plate spectrophotometer.

Chain of human PD-L1 / Human PD-1 (Q9NZQ7 19-239): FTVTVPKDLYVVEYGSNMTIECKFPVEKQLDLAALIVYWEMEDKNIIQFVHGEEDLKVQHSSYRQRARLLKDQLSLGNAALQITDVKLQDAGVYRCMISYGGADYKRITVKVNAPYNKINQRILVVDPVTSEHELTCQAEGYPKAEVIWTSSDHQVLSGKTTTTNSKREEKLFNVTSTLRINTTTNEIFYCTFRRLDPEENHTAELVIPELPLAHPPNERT

Compound	IC50
COc1cc(-c2cccc(-c3ccc4c(c3C)CNCC4)c2C)cc(F)c1CNCCO [Compd 1.020]	1 to 10 µM
CCOC(=O)CN1CCc2cc(-c3cccc(-c4cccc(OCCCN5[C@H](C)CC[C@H]5C)c4C)c3C)ccc2C1 [Compd 1.106]	1 to 10 µM
Cc1c(OCCCN2CCC2(C)C)cccc1-c1cccc(-c2ccc3c(c2)CCNC3)c1C(F)(F)F [Compd 1.085]	1 to 10 µM

The next lines start with the values.

IC50	Compound
< 1 µM	COc1cc(-c2cccc(-c3cccc(-c4cc(F)c(CNC(C)C)c(OC)c4)c3C)c2C)cc(F)c1CNC(C)C [Compd 1.048]
< 1 µM	COc1cc(-c2cccc(-c3cccc(-c4cc(F)c(CN)c(OC)c4)c3C)c2C)ccc1CN [Compd 1.036]

— US11485708B2, “Compounds for treatment of PD-L1 diseases” (CHEMOCENTRYX, INC., priority 2019, dated 2022)
